Results on four compounds are retold here after patent US20080114047A1 (priority 2003, published 2008).

“And” between values parts separate entries of the source, which are not always exact repeats. Equal entries are not always repeated. Where two headings read alike, the source gives them in different places.

The subject of series [1] is L. donovani axenic amastigotes. Briefly: In vitro anti-leishmania activity (IC50 vs. L. donovani axenic amastigotes). It counts as cell-based. The settings on record: Leishmania donovani.
In a further series the test system is J774 macrophages. The series is described as follows: Toxicity against J774 macrophages (IC50). Type of series: cell-based. The following applies: Mus musculus, Tables I-III, V.
Series [2] has as its system Trypanosoma brucei rhodesiense. The series is described as follows: Anti-protozoan data: T.b.r. IC50. It counts as cell-based. The following applies: read-out: T.b.r. IC50.
The subject of a further series is Trypanosoma cruzi. The series is described as follows: Anti-protozoan data: T. cruzi IC50. It counts as cell-based. The following applies: read-out: T. cruzi IC50.
Another series has as its system Plasmodium falciparum. Briefly: Anti-protozoan data: P. falcip. IC50. Type of series: cell-based. The following applies: read-out: P. falcip. IC50.
Another series relates to DNA. Briefly: DNA binding ΔTm. The settings on record: Tables VI(a), VI(c).
Series [3] relates to Mycobacterium tuberculosis. The series is described as follows: Compounds tested against Mycobacterium tuberculosis (MIC90). It counts as cell-based. The settings on record: read-out: M. tb. MIC90.
The next series concerns Candida albicans. Briefly: Anti-fungal data: Candida albicans. It counts as cell-based. The following applies: for MFC / MIC80: strain A39; for MIC: strain A39, read-out: Candida albicans (A39) MIC100.
The next series concerns Aspergillus fumigatus. The series is described as follows: Anti-fungal data: Aspergillus fumigatus. The settings on record: for MIC: strain DUMC 168.95, read-out: Aspergillus. Fumigatus (DUMC 168.95) MIC100. Type of series: cell-based.
The next series relates to Cryptococcus neoformans. Briefly: Anti-fungal data: Cryptococcus neoformans. Type of series: cell-based. The settings on record: for MFC / MIC80: strain H99; for MIC: strain H99, read-out: Cryptococcus neoformans (H99) MIC100.
The mark [4] stands for this setting: axenic amastigotes, Tables I-V, read-out: IC50 vs. L. donovani.
The mark [5] stands for this setting: Tables VI(a), VI(c), read-out: Leishmania donovani IC50.

`Cl.Cl.N=C(N)c1ccc(OCCCOc2ccc(-c3cc4cc(C(=N)N)ccc4o3)cc2)cc1` [Compound 44, 2-(4-(3-(4-Carbamimidoylphenoxy)propoxy)phenyl)benzofuran-5-carboxamidine dihydrochloride] displayed a melting point of 287 to 289 °C. Also, the IC50 in series [1] (setting [4]) stood at 780 ± 210 nM. The same compound displayed a half-maximal inhibitory concentration (IC50) with J774 macrophages of 2700 ± 300 nM. The IC50 in series [2] was determined as 450 nM. Moreover, the IC50 in the series on Trypanosoma cruzi turned out to be 16900 nM. Further, the IC50 with Plasmodium falciparum turned out to be 41.4 nM. For the same compound, in the series on DNA, the “DNA binding Δ Tm” value was 18.7. Besides, the MIC90 in [3] was 0.45 µg/mL and 0.86 µM. For the same compound, in the series with Candida albicans, the MFC stood at 10 µg/mL, the MIC80 is at most 1 µg/mL and the MIC was at most 1 µg/mL. This compound also yielded an MIC80 in the series on Aspergillus fumigatus (strain DUMC 168.95) of 10 µg/mL. For the same compound, in the series on Aspergillus fumigatus, the MIC is above 100 µg/mL. The same compound displayed an IC50 in “in vitro” of 7320 nM.

Turning to `Cl.Cl.N=C(N)c1ccc(OCCCCCCOc2ccc(-c3cc4cc(C(=N)N)ccc4o3)cc2)cc1` [Compound 53, 2-(4-(6-(4-Carbamimidoylphenoxy)hexyloxy)phenyl)benzofuran-5-carboxamidine dihydrochloride], the melting point lay within 310 to 311 °C. Moreover, in series [1] (setting [5]), the IC50 is 650 ± 170 nM. Moreover, the IC50 in series [1] (setting [4]) is 650 ± 170 nM. In addition, the IC50 in the series with J774 macrophages amounted to 600 ± 70 nM. In addition, the IC50 in [2] (Tables VI(a), VI(c)) worked out at 368 nM. For the same compound, in the series on Trypanosoma cruzi (Tables VI(a), VI(c)), the IC50 was 6210 nM. Also, the IC50 in the series with Plasmodium falciparum (Tables VI(a), VI(c)) worked out at 263 nM. Further, the MIC90 in [3] was 3.74 µg/mL and 6.84 µM. For the same compound, in the series with Candida albicans, the MFC was determined as 3.12 µg/mL, the MIC80 was 1.56 µg/mL and the MIC is 3.12 µg/mL. Further, the MIC80 against Aspergillus fumigatus (strain DUMC 168.95) came out at 12.5 µg/mL. In the series with Aspergillus fumigatus, the MIC is above 100 µg/mL. Further, in the series with Cryptococcus neoformans, the MFC was determined as 6.25 µg/mL, the MIC80 came out at 1.56 µg/mL and the MIC is 3.12 µg/mL. The compound further showed an IC50 in “in vitro” of 3290 nM.

Consider `Cl.Cl.N=C(N)c1ccc(OCCCCCOc2cccc(-c3cc4ccc(C(=N)N)cc4o3)c2)cc1` [Compound 62, 2-(3-(5-(4-Carbamimidoylphenoxy)pentyloxy)phenyl)benzofuran-6-carboxamidine dihydrochloride], for which the melting point is 178 to 182 °C. Further, the IC50 in series [1] (setting [5]) is 5750 ± 60 nM. In series [1] (setting [4]), the IC50 amounted to 5750 ± 60 nM. In the series on J774 macrophages, this compound yielded an IC50 of 5600 ± 300 nM. Further, the IC50 in series [2] (Tables VI(a), VI(c)) is 531 nM. The IC50 with Trypanosoma cruzi (Tables VI(a), VI(c)) worked out at 8560 nM. Moreover, the IC50 with Plasmodium falciparum (Tables VI(a), VI(c)) is 282 nM. For the same compound, in series [3], the MIC90 was 0.65 µg/mL and 1.15 µM. In the series on Candida albicans, the MFC was 1.56 µg/mL, the MIC80 amounted to 0.39 µg/mL and the MIC stood at 0.39 µg/mL. In the series on Aspergillus fumigatus (strain DUMC 168.95), this compound registered an MFC above 100 µg/mL and an MIC80 of 1.56 µg/mL. Also, the MIC in the series on Aspergillus fumigatus came to 3.12 µg/mL. In the series with Cryptococcus neoformans, the MFC was 0.78 µg/mL, the MIC80 worked out at 0.39 µg/mL and the MIC was determined as 0.39 µg/mL. For the same compound, the midpoint of inhibition in the series “in vitro”, the IC50, lay at 4120 nM.

Turning to `CC(C)NC(=N)c1ccc(OCCCCCCOc2ccc(-c3cc4ccc(C(=N)NC(C)C)cc4o3)cc2)cc1.Cl.Cl` [Compound 78, 2-(4-(6-(4-(N-Isopropylcarbamimidoyl)phenoxy)hexyloxy)phenyl)-N-isopropylbenzofuran-6-carboxamidine dihydrochloride], the melting point lay in the range of 264 to 268 °C. The IC50 in series [1] (setting [5]) was found to be 2620 ± 350 nM. Further, the IC50 in [1] (setting [4]) is 2620 ± 350 nM. This compound registered an IC50 in the series with J774 macrophages of 730 ± 30 nM. Moreover, the IC50 in series [2] (Tables VI(a), VI(c)) was found to be 884 nM. The IC50 in the series with Trypanosoma cruzi (Tables VI(a), VI(c)) amounted to 3480 nM. The IC50 in the series with Plasmodium falciparum (Tables VI(a), VI(c)) amounted to 51.9 nM. Further, the MIC90 in series [3] is 2.11 µg/mL and 3.33 µM. This compound yielded an IC50 in the series “in vitro” of 4900 nM.

Broadly, the IC50 is the concentration needed to halve the response being measured. The term MIC90 denotes the lowest concentration that inhibits either 90% of growth or 90% of the strains tested, depending on the study. Usually MFC stands for the lowest tested concentration that kills the fungus rather than only halting it. High values mean weaker fungicidal potency, low ones greater fungicidal potency. A word on the MIC80: it is the lowest concentration that inhibits either 80% of growth or 80% of the strains tested, depending on the study. Low readings indicate greater potency, high ones weaker potency. One may read the melting point as the temperature of the solid-liquid transition.
